The source of these data is PubChem BioAssay AID624143 (National Center for Advancing Translational Sciences (NCATS), 2012).

For the series, the system named is mouse plasma stability, LC-MS/MS, 48 h. The series is described as follows: qHTS Assay to Find Inhibitors of T. brucei phosphofructokinase: Mouse Plasma Stability Profiling. To be noted: at 2 µM; stronger effect = higher value.

For the compound `O=C(Cc1ccc(Cl)c(Cl)c1)Nc1ccc(S(=O)(=O)Nc2ccon2)cc1`, the percent remaining is 100%.
